The target in data set [1] is T1, KOR (Cavia porcellus, UniProt P41144).
T1 construct: from tissue; host or cells: guinea pig brain membranes
Kind of data set: KOR competitive radioligand binding ([3H]-(+)-U69,593 displacement, guinea pig brain membranes).

Data set [2] concerns the target T2, KOR (Homo sapiens, UniProt P41145).
T2 construct: FLAG; expressed in transfected cells
Kind of data set: Inhibition of forskolin-stimulated cAMP accumulation in HEK293 cells stably expressing KOR. Type of data set: cell-based. The note with it: for Imax (%) ± SD KOR: maximal percent inhibition of cAMP accumulation; for Imax (%) ± SD KOR / cAMP inhibition: HEK293-KOR; for cAMP inhibition: only at very high concentrations, not dose-dependent. The method, then:
As typical Gi/o coupled receptor, MOR, DOR and KOR signals are mediated by AC inhibition. Given the significant MOR and moderate KOR affinity, to examine the functional role of target compounds, in opioid receptor signaling, the ability of 5a–d and 6a–d to affect forskolin-stimulated AC activity in HEK293 cells stably expressing the MOR or KOR was tested and the results are reported in Table 2.
(§1) Cell culture. HEK293 cells stably expressing either the EE-tagged MOR or the flag-tagged KOR [20, 21, 22] were grown in Dulbecco’s modified Eagle’s medium (DMEM) supplemented with 10% fetal calf serum, 2 mM glutamine, 100 U/mL penicillin, and 0.1 mg/mL streptomycin under 5% CO2 at 37 °C.
(§2) Measurements of cAMP accumulation. Measurements of AC activity were performed as described by Papakonstantinou et al. or the GloSensor cAMP Assay (Promega) following the Manufacturer’s instructions. The generation of cAMP was assessed in response to treatment of the cells with various concentrations of the appropriate ligand (10 pM–50 μΜ) using 50 μΜ forskolin at 37 °C. Values are means ± SD of triplicate determinations from three independent experiments. Analysis of the data was performed using Origin 7.5 software (OriginLab Corporation, Northampton, MA, USA).
(In general: Changes in cAMP serve as a functional read-out for many G protein-coupled receptors.)

Data set [3] deals with T3, MOR (Rattus norvegicus, UniProt P33535). The data set is described as follows: Inhibition of forskolin-stimulated cAMP accumulation in HEK293 cells stably expressing MOR. The class given is cell-based. The conditions noted are these: maximal percent inhibition of cAMP accumulation, read-out: Imax (%) ± SD MOR. On the procedure: As typical Gi/o coupled receptor, MOR, DOR and KOR signals are mediated by AC inhibition.
as §1, §2

Data set [4] concerns the target T3, MOR. The data set is described as follows: MOR competitive radioligand binding ([3H]-DAMGO displacement, rat brain membranes). Details: from tissue; host or cells: rat brain membranes.
The target of a further data set is T4, DOR (Rattus norvegicus, UniProt P33533).
T4 construct: from tissue; host or cells: rat brain membranes
The data set is described as follows: DOR competitive radioligand binding ([3H]-DPDPE displacement, rat brain membranes).

The text below walks through data of PMC6017588, “Synthesis and Structure-Activity Relationships of LP1 Derivatives: N-Methyl-N-phenylethylamino Analogues as Novel MOR Agonists” (Molecules : A Journal of Synthetic Chemistry and Natural …, 2018).

Structures can show the parent of a compound that is named as a salt.

What is called melting point is the temperature of the solid-liquid transition. `C[C@H]1[C@H]2Cc3ccc(O)cc3[C@]1(C)CCN2CCNc1ccccc1` (as salt: oxalate) [5a, (2R,6R,11R)-3-(2-Anilinoethyl)-6,11-dimethyl-1,2,3,4,5,6-hexahydro-2,6-methano-3-benzazocin-8-ol] returned a melting point of 145 to 146 °C.
As usually defined, the Ki is a dissociation constant, usually derived from enzyme kinetics or from competition with a known ligand. A lower Ki goes with higher affinity. One may read the IC50 as the midpoint of a concentration-inhibition curve. Consider `C[C@H]1[C@H]2Cc3ccc(O)cc3[C@]1(C)CCN2CCNc1ccccc1` [5a, (2R,6R,11R)-3-(2-Anilinoethyl)-6,11-dimethyl-1,2,3,4,5,6-hexahydro-2,6-methano-3-benzazocin-8-ol], for which the Ki came out at 100 ± 5 nM at KOR [1], 83 ± 30 nM on MOR [4] and 270 ± 10 nM at DOR. Further, the half-inhibitory concentration (IC50) at KOR [2] is 1000 ± 65 nM. Besides, the Emax on MOR [3] is 60 ± 4%.
For `C[C@H]1[C@H]2Cc3ccc(O)cc3[C@]1(C)CCN2CCNC1CCCCC1` [5b, (2R,6R,11R)-3-[2-(Cyclohexylamino)ethyl)-6,11-dimethyl-1,2,3,4,5,6-hexahydro-2,6-methano-3-benzazocin-8-ol], the Ki at KOR [1] turned out to be 19.8 ± 0.9 nM; on MOR [4], 8.3 ± 0.8 nM; on DOR, 70 ± 2 nM. For the same molecule, the IC50 on KOR [2] worked out at 180 ± 50 nM. On KOR [2], the “Imax (%) ± SD KOR” value worked out at 58 ± 4%. In addition, at MOR [3], the Emax worked out at 28 ± 1%.
With `CCN(CCN1CC[C@@]2(C)c3cc(O)ccc3C[C@@H]1[C@@H]2C)c1ccccc1` [5d, (2R,6R,11R)-6,11-Dimethyl-{2-[ethyl(phenyl)amino]ethyl}-1,2,3,4,5,6-hexahydro-2,6-methano-3-benzazocin-8-ol], the Ki at KOR [1] turned out to be 28.7 ± 1 nM; at MOR [4] it was 160 ± 7 nM; at DOR it was 411 ± 14 nM. This molecule yielded a cAMP inhibition at KOR [2] of 30%. For the same molecule, the Emax at MOR [3] was found to be 55 ± 3%.
Turning to `C[C@H]1[C@H]2Cc3ccc(O)cc3[C@]1(C)CCN2CCCNc1ccccc1` [6a, (2R,6R,11R)-3-(3-Anilinopropyl)-6,11-dimethyl-1,2,3,4,5,6-hexahydro-2,6-methano-3-benzazocin-8-ol], the Ki on KOR [1] was found to be 71 ± 2 nM; at MOR [4], 7 ± 0.6 nM; on DOR, 117 ± 5.2 nM. At KOR [2], this molecule registered an IC50 of 1400 ± 69 nM. Moreover, the “Imax (%) ± SD KOR” value at KOR [2] came to 53 ± 4%. Also, at MOR [3], the Emax worked out at 50 ± 3%.
For the molecule `C[C@H]1[C@H]2Cc3ccc(O)cc3[C@]1(C)CCN2CCCNC1CCCCC1` [6b, (2R,6R,11R)-3-[3-(Cyclohexylamino)propyl)-6,11-dimethyl-1,2,3,4,5,6-hexahydro-2,6-methano-3-benzazocin-8-ol], the Ki is 126 ± 4.5 nM at KOR [1], 48 ± 1.4 nM at MOR [4] and over 5000 nM at DOR. Also, the concentration for half-maximal inhibition (IC50) on KOR [2] was over 5000 nM. Besides, on KOR [2], the “Imax (%) ± SD KOR” value is listed as 44 ± 3%.
In the case of `C[C@H]1[C@H]2Cc3ccc(O)cc3[C@]1(C)CCN2CCCN(C)c1ccccc1` [6c, (2R,6R,11R)-6,11-Dimethyl-{3-[methyl(phenyl)amino]propyl}-1,2,3,4,5,6-hexahydro-2,6-methano-3-benzazocin-8-ol], the Ki at KOR [1] is 94 ± 3.5 nM; on MOR [4], 68 ± 1.6 nM; at DOR, over 5000 nM. At KOR [2], this molecule showed a cAMP inhibition of 30%. Besides, the Emax at MOR [3] was determined as 50 ± 3%.
The like results for `CCN(CCCN1CC[C@@]2(C)c3cc(O)ccc3C[C@@H]1[C@@H]2C)c1ccccc1` [6d, (2R,6R,11R)-6,11-Dimethyl-{3-[ethyl(phenyl)amino]propyl}-1,2,3,4,5,6-hexahydro-2,6-methano-3-benzazocin-8-ol] were, in that order, 56 ± 1.7 nM, 86 ± 3 nM, 1060 ± 152 nM, 30% and 40 ± 2%.
Regarding `C[C@@H](NC(=O)[C@@H](N)Cc1ccc(O)cc1)C(=O)NCC(=O)N(C)[C@@H](Cc1ccccc1)C(=O)NCCO` [DAMGO, reference compound], at MOR [3], the Emax amounted to 73 ± 0.3%.
On DOR, `Oc1ccc2c3c1O[C@H]1c4[nH]c5ccccc5c4C[C@@]4(O)[C@@H](C2)N(CC2CC2)CC[C@]314` [Naltrindole, reference compound] gave a Ki of 1.13 ± 0.1 nM.
